Assay results as given in ChEMBL document CHEMBL1201862, “PubChem BioAssay data set” (2004).
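In this assay, cells in 96-well plates receive the compound at five concentrations for 48 hours. Endpoints are linearly interpolated between the surrounding concentrations. Abbreviation: GI50, concentration required for 50% inhibition of growth.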 The source made the active and inactive calls. Cut-off read from the data, not from the text of the source: active = GI50 up to about 1.1 µM and inactive = higher.

Columns and labels:
Experiment in all cases: DTP human tumour cell line panel, 48 h
786-0 = system: 786-0
A549 = system: A549
HCT-15 = system: HCT-15
M14 = system: M14
MCF7 = system: MCF7
MDA-MB-231 = system: MDA-MB-231
MDA-MB-435 = system: MDA-MB-435
Malme-3M = system: Malme-3M
NCI-H226 = system: NCI-H226
OVCAR-3 = system: OVCAR-3
OVCAR-8 = system: OVCAR-8
RPMI-8226 = system: RPMI-8226
RXF 393 = system: RXF 393
SF-268 = system: SF-268
SK-MEL-2 = system: SK-MEL-2
SNB-75 = system: SNB-75
SR = system: SR
HL-60 = system: HL-60
SN12C = system: SN12C
HCC 2998 = system: HCC 2998

SMILES | GI50 (786-0) | GI50 (A549) | GI50 (HCT-15) [µM] | GI50 (M14) | GI50 (MCF7) | GI50 (MDA-MB-231) | GI50 (MDA-MB-435) | GI50 (Malme-3M) | GI50 (NCI-H226) | GI50 (OVCAR-3) | GI50 (OVCAR-8) | GI50 (RPMI-8226) | GI50 (RXF 393) | GI50 (SF-268) | GI50 (SK-MEL-2) | GI50 (SNB-75) | GI50 (SR) | GI50 (HL-60) | GI50 (SN12C) | GI50 (HCC 2998)
COCC1OCCN1C (configuration not stated) | > 100 µM (inactive) | > 100 µM (inactive) | > 100 | > 100 µM (inactive) | > 100 µM (inactive) | > 100 µM (inactive) | > 100 µM (inactive) | > 100 µM (inactive) | > 100 µM (inactive) | > 100 µM (inactive) | > 100 µM (inactive) | > 100 µM (inactive) | > 100 µM (inactive) | > 100 µM (inactive) | > 100 µM (inactive) | > 100 µM (inactive) | > 100 µM (inactive) |  |  | 
Nc1nc(Nc2ccccc2)sc1C(=O)c1ccco1 | 12.7 µM (inactive) | 17.1 µM (inactive) | 12.2 | 20.9 µM (inactive) | 7.74 µM (inactive) | 34.7 µM (inactive) | 16.4 µM (inactive) | 26.9 µM (inactive) | 21.3 µM (inactive) | 5.69 µM (inactive) |  | 16.1 µM (inactive) | 14.2 µM (inactive) | 26.7 µM (inactive) | 15.2 µM (inactive) | 15.1 µM (inactive) | 5.97 µM (inactive) | 14.1 µM (inactive) | 17.7 µM (inactive) | 
O=c1[nH]c(=O)n(C2CC(O)C(CO)O2)cc1/N=N/NCCc1ccccc1 (configuration not stated) | > 100 µM (inactive) | > 100 µM (inactive) | > 100 | > 100 µM (inactive) | > 100 µM (inactive) | > 100 µM (inactive) | > 100 µM (inactive) | > 100 µM (inactive) | > 100 µM (inactive) | > 100 µM (inactive) | > 100 µM (inactive) | > 100 µM (inactive) | > 100 µM (inactive) | > 100 µM (inactive) |  | > 100 µM (inactive) | > 100 µM (inactive) | > 100 µM (inactive) | > 100 µM (inactive) | 
CCOC(=O)Nc1c(C#N)[n+]([O-])c2cc(Cl)c(Cl)cc2[n+]1[O-] | 15.6 µM (inactive) | 22 µM (inactive) | 5.13 | 16.9 µM (inactive) | 16.7 µM (inactive) | 15.9 µM (inactive) | 16.4 µM (inactive) | 15.2 µM (inactive) | 15.7 µM (inactive) | 20.1 µM (inactive) | 13.4 µM (inactive) | 2.15 µM (inactive) | 15.1 µM (inactive) | 15.3 µM (inactive) | 17.7 µM (inactive) | 15.4 µM (inactive) | 4.09 µM (inactive) |  | 16.4 µM (inactive) | 
N=C(N)NCCCC(NC(=O)c1c2ccccc2nc2ccccc12)C(=O)O (configuration not stated) | > 100 µM (inactive) | > 100 µM (inactive) | > 100 | > 100 µM (inactive) | > 100 µM (inactive) | > 100 µM (inactive) | > 100 µM (inactive) |  | > 100 µM (inactive) | > 100 µM (inactive) | > 100 µM (inactive) | > 100 µM (inactive) |  | > 100 µM (inactive) | > 100 µM (inactive) | > 100 µM (inactive) | > 100 µM (inactive) |  | > 100 µM (inactive) | > 100 µM (inactive)
Cc1c/c(=N/NC(=O)c2ccncc2)n2nc(N)sc2n1 | > 100 µM (inactive) | > 100 µM (inactive) | > 100 | > 100 µM (inactive) | > 100 µM (inactive) | > 100 µM (inactive) | > 100 µM (inactive) |  | > 100 µM (inactive) | > 100 µM (inactive) | > 100 µM (inactive) | > 100 µM (inactive) | > 100 µM (inactive) |  | > 100 µM (inactive) | 40.2 µM (inactive) | > 100 µM (inactive) | > 100 µM (inactive) | > 100 µM (inactive) | > 100 µM (inactive)
COc1cc(C2OC[C@@H]3C(=O)OC[C@H]23)cc(O)c1OC (some centres not stated) | > 100 µM (inactive) | > 100 µM (inactive) | > 100 | > 100 µM (inactive) | > 100 µM (inactive) | > 100 µM (inactive) | > 100 µM (inactive) |  | > 100 µM (inactive) | > 100 µM (inactive) | > 100 µM (inactive) | > 100 µM (inactive) | > 100 µM (inactive) | > 100 µM (inactive) | > 100 µM (inactive) | > 100 µM (inactive) | > 100 µM (inactive) | > 100 µM (inactive) | > 100 µM (inactive) | > 100 µM (inactive)
Fc1cc(C2=Nn3c(COc4ccccc4Cl)nnc3S/C2=C\c2ccc(Cl)cc2)c(Cl)cc1Cl | 4.23 µM (inactive) |  | 3.72 | 3.75 µM (inactive) | 5.14 µM (inactive) | 3.72 µM (inactive) | 2.26 µM (inactive) |  | 20.6 µM (inactive) | 17.1 µM (inactive) | 6.03 µM (inactive) | 3.08 µM (inactive) | 9.89 µM (inactive) | 2.83 µM (inactive) | 13.3 µM (inactive) |  | 4.39 µM (inactive) | 4.49 µM (inactive) |  | 3.6 µM (inactive)
O=c1c2cc([N+](=O)[O-])cnc2sn1-c1ccc([N+](=O)[O-])cc1 | 40.4 µM (inactive) | 33 µM (inactive) | 28.5 | 48.8 µM (inactive) | 22.4 µM (inactive) | 19.9 µM (inactive) | 84.1 µM (inactive) | 14.2 µM (inactive) | 74.6 µM (inactive) | 34.6 µM (inactive) | 42.5 µM (inactive) | 23.9 µM (inactive) |  | 27.1 µM (inactive) | 23.8 µM (inactive) | 38.1 µM (inactive) | 22.1 µM (inactive) | 26 µM (inactive) | 47.2 µM (inactive) | 43.8 µM (inactive)
NCCSc1nc(-c2ccccc2)c(-c2ccccc2)o1 | 32.1 µM (inactive) | > 100 µM (inactive) | > 100 | > 100 µM (inactive) | > 100 µM (inactive) | > 100 µM (inactive) | > 100 µM (inactive) | > 100 µM (inactive) | > 100 µM (inactive) | > 100 µM (inactive) | > 100 µM (inactive) | 88.3 µM (inactive) | 42.2 µM (inactive) | > 100 µM (inactive) | > 100 µM (inactive) | 21 µM (inactive) | 7.38 µM (inactive) |  | 77.8 µM (inactive) | 
O=Cc1ccc(OC[C@H]2COC(=O)N2)cc1 | > 100 µM (inactive) | 47.9 µM (inactive) | > 100 | > 100 µM (inactive) | > 100 µM (inactive) | > 100 µM (inactive) | > 100 µM (inactive) | > 100 µM (inactive) | > 100 µM (inactive) | > 100 µM (inactive) | > 100 µM (inactive) |  | > 100 µM (inactive) | > 100 µM (inactive) | > 100 µM (inactive) | > 100 µM (inactive) | > 100 µM (inactive) | > 100 µM (inactive) | > 100 µM (inactive) | 56.5 µM (inactive)
O[C@H]1[C@@H]2OC[C@@H](O)[C@H](OCc3ccccc3)[C@@](COCc3ccccc3)(O2)[C@@H]1OCc1ccccc1 | 19.9 µM (inactive) | 17.1 µM (inactive) | 16.4 | 17.3 µM (inactive) | 19.3 µM (inactive) | 17 µM (inactive) | 17.3 µM (inactive) | 13.6 µM (inactive) |  | 5.46 µM (inactive) | 16.7 µM (inactive) | 10.4 µM (inactive) | 20.2 µM (inactive) | 22.2 µM (inactive) | 15.2 µM (inactive) | 2.39 µM (inactive) | 38.5 µM (inactive) | 32.6 µM (inactive) | 14.7 µM (inactive) | 
O=C(Nc1ccc(Cl)cc1Cl)C1C(=O)OC2(CCCCC2)OC1=O | 12.2 µM (inactive) | 4.71 µM (inactive) | 14.6 | 8.77 µM (inactive) | 7.29 µM (inactive) | 14.1 µM (inactive) | 8.2 µM (inactive) |  | 12.6 µM (inactive) | 3.18 µM (inactive) | 5.7 µM (inactive) | 4.16 µM (inactive) | 5.36 µM (inactive) | 14.6 µM (inactive) | 2.93 µM (inactive) | 10.4 µM (inactive) | 5.97 µM (inactive) | 5.16 µM (inactive) | 14.7 µM (inactive) | 13 µM (inactive)
C=CCOC(=O)Cn1cnc2c(N)ncnc21 | > 100 µM (inactive) | > 100 µM (inactive) | > 100 | > 100 µM (inactive) | > 100 µM (inactive) | > 100 µM (inactive) | > 100 µM (inactive) | > 100 µM (inactive) | > 100 µM (inactive) |  | > 100 µM (inactive) | > 100 µM (inactive) |  | > 100 µM (inactive) | > 100 µM (inactive) | > 100 µM (inactive) | > 100 µM (inactive) | > 100 µM (inactive) | > 100 µM (inactive) | > 100 µM (inactive)
CC(CS(=O)(=O)Cc1ccccc1)C(N)=O (configuration not stated) | > 100 µM (inactive) | > 100 µM (inactive) | > 100 | > 100 µM (inactive) | > 100 µM (inactive) | > 100 µM (inactive) | > 100 µM (inactive) | > 100 µM (inactive) | > 100 µM (inactive) | > 100 µM (inactive) | > 100 µM (inactive) | > 100 µM (inactive) |  | > 100 µM (inactive) | > 100 µM (inactive) |  | > 100 µM (inactive) | > 100 µM (inactive) | > 100 µM (inactive) | 
CCCCN(CCCC)C1(c2cc3ccccc3s2)CCCCC1.[O-][Cl+3]([O-])([O-])O | 13.7 µM (inactive) | 18.2 µM (inactive) | 15.5 | 14.6 µM (inactive) | 17.3 µM (inactive) | 15.9 µM (inactive) | 13.3 µM (inactive) |  | 17.6 µM (inactive) | 15.7 µM (inactive) | 18.7 µM (inactive) |  | 16.6 µM (inactive) | 19.2 µM (inactive) | 19.8 µM (inactive) | 16.8 µM (inactive) | 16.3 µM (inactive) | 17.7 µM (inactive) | 21.4 µM (inactive) | 14.1 µM (inactive)
